The experiment deals with hNR2B (Homo sapiens, UniProt Q05586+Q13224). Kind of experiment: Electrophysiology NMDA receptor experiments: two electrode voltage-clamp in Xenopus laevis oocytes expressing GluN1/GluN2 subunits. It counts as cell-based. Conditions: oocytes voltage clamped at −40 mV, 50 μM glutamate, 30 μM glycine. As to the method: Electrophysiology NMDA Receptor Experiments.
Stage V and VI oocytes were surgically removed from the ovaries of large, well-fed and healthy Xenopus laevis anesthetized with 3-amino-benzoic acid ethyl ester (3 gm/l). Clusters of isolated oocytes were incubated with 292 U/ml Worthington (Freehold, N.J.) type IV collagenase or 1.3 mg/ml collagenase (Life Technologies, Gaithersburg, Md.; 17018-029) for 2 hr in Ca^2+-free solution comprised of (in mM) 115 NaCl, 2.5 KCl, and 10 HEPES, pH 7.5, with slow agitation to remove the follicular cell layer. Oocytes were then washed in the same solution supplemented with 1.8 mM CaCl2 and maintained in Barth's solution comprised of (in mM): 88 NaCl, 1 KCl, 2.4 NaHCO3, 10 HEPES, 0.82 MgSO4, 0.33 Ca(NO3)2, and 0.91 CaCl2 and supplemented with 100 μg/ml gentamycin, 10 μg/ml streptomycin, and 10 μg/ml penicillin. Oocytes were manually defolliculated and injected within 24 hrs of isolation with 3-5 ng of human GluN1 subunit cRNA and 7-10 ng of human GluN2 cRNA subunit in a 50 nl volume, and incubated in Barth's solution at 18° C. for 2-7 d. Glass injection pipettes had tip sizes ranging from 10-20 microns, and were backfilled with mineral oil. cRNA was synthesized from linearized template cDNA for rat glutamate receptor subunits according to manufacturer specifications (Ambion).
Two electrode voltage-clamp recordings were made 2-7 days post-injection. Oocytes were placed in a dual-track plexiglass recording chamber with a single perfusion line that splits in a Y-configuration to perfuse two oocytes. Dual recordings were made at room temperature (23° C.) using two Warner OC725B two-electrode voltage clamp amplifiers, arranged as recommended by the manufacturer. Glass microelectrodes (1-10 Megaohms) were filled with 300 mM KCl (voltage electrode) or 3 M KCl (current electrode). The bath clamps communicated across silver chloride wires placed into each side of the recording chamber, both of which were assumed to be at a reference potential of 0 mV. Oocytes were perfused with a solution comprised of (in mM) 90 NaCl, 1 KCl, 10 HEPES, […] and 0.5 BaCl2; pH 7.4, adjusted by addition of NaOH. Oocytes were recorded under voltage clamp at −40 mV. Final concentrations for glutamate and glycine were 50 μM and 30 μM, respectively. Concentration-response curves for experimental compounds were obtained by applying in successive fashion maximal glutamate/glycine, followed by glutamate/glycine plus variable concentrations of experimental compounds. Dose response curves consisting of four to eight concentrations were obtained in this manner. The baseline leak current at −40 mV was measured before and after recording, and the full recording linearly corrected for any change in leak current. The level of inhibition by applied experimental compounds was expressed as a percent of the initial glutamate response, and averaged together across oocytes from multiple experiments. Results were pooled, and the average percent responses at antagonist concentrations were fit by the equation, Percent Response=(100−minimum)/(1+([conc]/IC50)^nH)+minimum where minimum is the residual percent response in saturating concentration of the experimental compounds, IC50 is the concentration of antagonist that causes half of the achievable inhibition, and nH is a slope factor describing steepness of the inhibition curve. […]
For NMDA receptor subtype selectivity experiments human GluN1/GluN2A, GluN1/GluN2C, and GluN1/GluN2D cRNAs were expressed in Xenopus laevis as described above. Here, 10 μM concentrations of the antagonist was perfused with 50 μM glutamate and 30 μM glycine onto the oocyte for two min and the remaining current in the presence of the antagonist was compared to the maximal current obtained with 50 μM glutamate and 30 μM glycine alone (defined as 100%). When IC50 determinations were made against other NMDA receptor subtypes the protocol as described above was followed. […]

Like-named read-outs stand apart in the source and are kept apart here. Where only a bound is given, the exact number is not on record here.

hNR2B, sequence (Q13224 27-1484, other chains not shown): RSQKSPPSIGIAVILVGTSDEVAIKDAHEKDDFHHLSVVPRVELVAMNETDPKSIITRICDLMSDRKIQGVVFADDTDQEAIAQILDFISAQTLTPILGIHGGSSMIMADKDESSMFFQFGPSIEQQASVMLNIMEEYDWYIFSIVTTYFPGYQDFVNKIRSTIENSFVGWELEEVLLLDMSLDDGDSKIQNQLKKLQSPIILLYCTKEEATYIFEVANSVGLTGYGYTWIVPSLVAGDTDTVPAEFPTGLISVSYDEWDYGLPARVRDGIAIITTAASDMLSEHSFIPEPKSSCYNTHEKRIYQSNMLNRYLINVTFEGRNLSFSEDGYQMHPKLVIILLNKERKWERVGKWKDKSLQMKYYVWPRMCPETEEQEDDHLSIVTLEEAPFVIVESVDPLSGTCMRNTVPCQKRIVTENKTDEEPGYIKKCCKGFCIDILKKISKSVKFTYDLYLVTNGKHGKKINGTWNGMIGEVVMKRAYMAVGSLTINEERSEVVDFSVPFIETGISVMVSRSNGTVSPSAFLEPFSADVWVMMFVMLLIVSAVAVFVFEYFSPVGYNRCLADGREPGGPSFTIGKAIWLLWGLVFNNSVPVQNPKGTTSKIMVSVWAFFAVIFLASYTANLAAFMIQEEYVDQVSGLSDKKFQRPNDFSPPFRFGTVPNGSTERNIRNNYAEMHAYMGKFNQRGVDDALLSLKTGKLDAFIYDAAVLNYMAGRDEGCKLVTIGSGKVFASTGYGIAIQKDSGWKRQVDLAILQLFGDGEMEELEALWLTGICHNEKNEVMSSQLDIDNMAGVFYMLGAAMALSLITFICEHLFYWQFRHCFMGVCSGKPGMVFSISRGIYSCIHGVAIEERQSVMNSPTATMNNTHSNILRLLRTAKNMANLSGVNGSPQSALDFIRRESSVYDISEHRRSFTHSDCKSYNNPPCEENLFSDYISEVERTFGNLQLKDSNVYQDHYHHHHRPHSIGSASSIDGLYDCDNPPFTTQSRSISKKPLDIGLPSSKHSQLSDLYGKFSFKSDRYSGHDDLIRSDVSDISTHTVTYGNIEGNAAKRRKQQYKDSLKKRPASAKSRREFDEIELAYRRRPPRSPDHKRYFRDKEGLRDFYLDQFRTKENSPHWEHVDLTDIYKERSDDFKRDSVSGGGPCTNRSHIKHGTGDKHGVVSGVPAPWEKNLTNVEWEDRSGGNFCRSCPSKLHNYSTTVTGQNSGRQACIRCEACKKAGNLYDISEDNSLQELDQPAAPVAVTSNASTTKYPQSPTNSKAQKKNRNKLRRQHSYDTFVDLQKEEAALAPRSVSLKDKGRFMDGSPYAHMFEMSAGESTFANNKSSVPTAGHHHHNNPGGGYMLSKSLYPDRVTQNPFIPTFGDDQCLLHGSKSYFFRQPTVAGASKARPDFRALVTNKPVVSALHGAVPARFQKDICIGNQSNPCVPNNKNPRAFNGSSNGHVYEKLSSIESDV

In the case of `O=c1ccc2cc(OCc3ccc(NCc4ccc(Cl)cc4)nc3)ccc2[nH]1` [Example 1, 6-((6-(4-chlorobenzylamino)pyridin-3-yl)methoxy)quinolin-2(1H)-one], the IC50 by setting is: (read-out: Rating (hNR2B IC50)) < 200 nM; (read-out: hNR2B IC50) 87 nM.

`O=c1ccc2cc(OCc3ccc(NCc4ccc(Cl)c(Cl)c4)nc3)ccc2[nH]1` [Example 2, 6-((6-(3,4-dichlorobenzylamino)pyridin-3-yl)methoxy)quinolin-2(1H)-one]: the IC50 is, setting by setting: (read-out: Rating (hNR2B IC50)) 1000 to 10000 nM; (read-out: hNR2B IC50) > 3000 nM.

With `O=c1ccc2cc(OCc3ccc(Nc4ccc(OC(F)F)cc4)nc3)ccc2[nH]1` [Example 3], the IC50 (read-out: Rating (hNR2B IC50)) is < 200 nM.

`O=c1ccc2cc(OCc3ccc(NCc4ccc(OC(F)F)cc4)nc3)ccc2[nH]1` [Example 4]: under “read-out: Rating (hNR2B IC50)”, the IC50 is > 10000 nM.

Consider `O=c1ccc2cc(OCc3ccc(NCc4ccc(F)c(F)c4)nc3)ccc2[nH]1` [Example 5], for which, under “read-out: Rating (hNR2B IC50)”, the IC50 lay in the range of 201 to 1000 nM.

For `O=C1CCc2cc(OCc3ccc(Nc4ccc(OC(F)(F)F)cc4)nc3)cc(F)c2N1` [Example 6], for the setting “read-out: Rating (hNR2B IC50)”, the IC50 fell in the range of 1000 to 10000 nM.

Turning to `O=c1ccc2cc(OCc3ccc(NCc4ccc(F)cc4)nc3)ccc2[nH]1` [Example 7], the IC50 (read-out: Rating (hNR2B IC50)) is < 200 nM.

For the compound `O=c1ccc2cc(OCc3ccc(NCc4cccc(Cl)c4)nc3)ccc2[nH]1` [Example 8], the IC50 (read-out: Rating (hNR2B IC50)) was 1000 to 10000 nM.

In the case of `O=c1ccc2cc(OCc3ccc(Nc4ccc(OC(F)(F)F)cc4)nc3)ccc2[nH]1` [Example 9], for the setting “read-out: Rating (hNR2B IC50)”, the IC50 was < 200 nM.

Take `Oc1ccc(OCc2ccc(Nc3ccc(OC(F)F)cc3)nc2)cc1` [Example 10]: the IC50 was < 200 nM (read-out: Rating (hNR2B IC50)) and 13 nM (read-out: hNR2B IC50).

Turning to `O=c1ccc2cc(OCc3cccc(Nc4ccc(Cl)cc4)n3)ccc2[nH]1` [Example 11], where the note is “read-out: Rating (hNR2B IC50)”, the IC50 was < 200 nM.

In the case of `Oc1ccc(OCc2cnc(Nc3ccc(Cl)cc3)nc2)cc1` [Example 12, 4-((2-(4-chlorophenylamino)pyrimidin-5-yl)methoxy)phenol], the IC50 (read-out: hNR2B IC50) is 394 nM.

`Oc1ccc(OCc2cnc(Nc3ccc(Cl)c(Cl)c3)nc2)cc1` [Example 13, 4-((2-(3,4-dichlorophenylamino)pyrimidin-5-yl)methoxy)phenol]: the IC50 (read-out: hNR2B IC50) stood at 395 nM.

For `O=c1ccc2cc(OCc3cnc(Nc4ccc(Cl)cc4)nc3)ccc2[nH]1` [Example 14, 6-((2-(4-chlorophenylamino)pyrimidin-5-yl)methoxy)quinolin-2(1H)-one], the IC50 (read-out: hNR2B IC50) came out at 64 nM.

`FC(F)(F)Oc1ccc(Nc2ncc(COc3ccc4[nH]nc(C(F)(F)F)c4c3)cn2)cc1` [Example 15, N-(4-(trifluoromethoxy)phenyl)-5-(((3-(trifluoromethyl)-1H-indazol-5-yl)oxy)methyl)pyrimidin-2-amine]: the IC50 (read-out: hNR2B IC50) was > 3000 nM.

For `O=c1[nH]c2ccc(OCc3cnc(Nc4ccc(OC(F)F)cc4)nc3)cc2o1` [Example 16, 6-((2-((4-(difluoromethoxy)phenyl)amino)pyrimidin-5-yl)methoxy)benzo[d]oxazol-2(3H)-one], the IC50 (read-out: hNR2B IC50) is 14 nM.

Turning to `Nc1ncc(OCc2cnc(Nc3ccc(OC(F)F)cc3)nc2)cn1` [Example 17, 5-((2-aminopyrimidin-5-yloxy)methyl)-N-(4-(difluoromethoxy)phenyl)pyrimidin-2-amine], the IC50 (read-out: hNR2B IC50) was > 1000 nM.

In the case of `COc1nc(Nc2ccc(OC(F)F)cc2)ncc1COc1ccc2[nH]c(=O)ccc2c1` [Example 18, 6-((2-((4-(difluoromethoxy)phenyl)amino)-4-methoxypyrimidin-5-yl)methoxy)quinolin-2(1H)-one], the IC50 (read-out: hNR2B IC50) turned out to be 5 nM.

Regarding `O=c1ccc2cc(OCc3cnc(NCc4ccc(Cl)cc4)nc3)ccc2[nH]1` [Example 19], the concentration for half-maximal inhibition (IC50) (read-out: Rating (hNR2B IC50)) is < 200 nM.

For `O=c1ccc2cc(OCc3cnc(Nc4ccc(Cl)c(Cl)c4)nc3)ccc2[nH]1` [Example 20], under “read-out: Rating (hNR2B IC50)”, the IC50 was < 200 nM.

For `O=c1ccc2cc(OCc3cnc(NCc4ccc(Cl)c(Cl)c4)nc3)ccc2[nH]1` [Example 21], for the setting “read-out: Rating (hNR2B IC50)”, the IC50 was > 10000 nM.

Take `O=c1ccc2cc(OCc3cnc(Nc4ccc(OC(F)F)cc4)nc3)ccc2[nH]1` [Example 22]: the IC50 (read-out: Rating (hNR2B IC50)) is < 200 nM.

For `O=c1ccc2cc(OCc3cnc(Nc4ccc(OC(F)(F)F)cc4)nc3)ccc2[nH]1` [Example 23], the IC50 (read-out: Rating (hNR2B IC50)) was < 200 nM.

In the case of `COc1ccc(Nc2ncc(COc3ccc4[nH]c(=O)ccc4c3)cn2)cc1` [Example 24], the IC50 (read-out: Rating (hNR2B IC50)) is < 200 nM and the IC50 (read-out: hNR2B IC50) was 90 nM.

`Cc1ccc(Nc2ncc(COc3ccc4[nH]c(=O)ccc4c3)cn2)cc1` [Example 25]: the IC50 is, setting by setting: (read-out: Rating (hNR2B IC50)) < 200 nM; (read-out: hNR2B IC50) 97 nM.

For `O=c1ccc2cc(OCc3cnc(NCc4ccc(F)c(F)c4)nc3)ccc2[nH]1` [Example 26], the IC50 was < 200 nM (read-out: Rating (hNR2B IC50)) and 139 nM (read-out: hNR2B IC50).

For `O=c1ccc2cc(OCc3cnc(NCc4ccc(F)cc4)nc3)ccc2[nH]1` [Example 27], the IC50 is, setting by setting: (read-out: Rating (hNR2B IC50)) < 200 nM; (read-out: hNR2B IC50) 62 nM.

Turning to `Cc1ccc(Nc2ncc(COc3ccc4[nH]c(=O)ccc4c3)cn2)cc1F` [Example 28], the IC50 runs as follows: (read-out: Rating (hNR2B IC50)) < 200 nM; (read-out: hNR2B IC50) 101 nM.

In the case of `COc1ccc(Nc2ncc(COc3ccc4[nH]c(=O)ccc4c3)cn2)cc1F` [Example 29], the IC50 (read-out: Rating (hNR2B IC50)) is < 200 nM.

On to `O=c1ccc2cc(OCc3cnc(Nc4ccc(F)cc4)nc3)ccc2[nH]1` [Example 30], for which, under “read-out: Rating (hNR2B IC50)”, the IC50 is < 200 nM.

With `O=c1ccc2cc(OCc3cnc(Nc4ccc(F)c(F)c4)nc3)ccc2[nH]1` [Example 31], for the setting “read-out: Rating (hNR2B IC50)”, the IC50 was < 200 nM.

Regarding `O=c1ccc2cc(OCc3cnc(Nc4ccc(F)c(Cl)c4)nc3)ccc2[nH]1` [Example 32], the IC50 (read-out: Rating (hNR2B IC50)) lay within 201 to 1000 nM.

As for `COc1cc(Nc2ncc(COc3ccc4[nH]c(=O)ccc4c3)cn2)ccc1F` [Example 33], the IC50 (read-out: Rating (hNR2B IC50)) was in the range of 1000 to 10000 nM.

With `O=c1ccc2cc(OCc3cnc(Nc4ccc(OC(F)F)c(Cl)c4)nc3)ccc2[nH]1` [Example 35], the IC50 (read-out: Rating (hNR2B IC50)) was < 200 nM.

`COc1ccc(Nc2ncc(COc3ccc4[nH]c(=O)ccc4c3)cn2)cc1Cl` [Example 36]: the IC50 (read-out: Rating (hNR2B IC50)) was < 200 nM.

Consider `O=c1ccc2cc(OCc3cnc(Nc4ccc(OC(F)F)c(F)c4)nc3)ccc2[nH]1` [Example 37], for which, where the note is “read-out: Rating (hNR2B IC50)”, the IC50 was < 200 nM.

For `Cc1cc(Nc2ncc(COc3ccc4[nH]c(=O)ccc4c3)cn2)ccc1OC(F)F` [Example 38], the IC50 (read-out: Rating (hNR2B IC50)) is < 200 nM.

For `CCc1ccc(Nc2ncc(COc3ccc4[nH]c(=O)ccc4c3)cn2)cc1F` [Example 39], the IC50 (read-out: Rating (hNR2B IC50)) was < 200 nM.

As to `CS(=O)(=O)c1ccc(Nc2ncc(COc3ccc4[nH]c(=O)ccc4c3)cn2)cc1` [Example 40], where the note is “read-out: Rating (hNR2B IC50)”, the IC50 was < 200 nM.

`Cc1ccc(Nc2ncc(COc3ccc4[nH]c(=O)ccc4c3)cn2)cc1C` [Example 41]: the IC50 (read-out: Rating (hNR2B IC50)) is < 200 nM.

As for `Cc1ccc(Nc2ncc(COc3ccc4[nH]c(=O)ccc4c3)cn2)cc1Cl` [Example 42], the IC50 (read-out: Rating (hNR2B IC50)) was < 200 nM.

For the compound `CCCc1ccc(Nc2ncc(COc3ccc4[nH]c(=O)ccc4c3)cn2)cc1` [Example 43], the IC50 (read-out: Rating (hNR2B IC50)) was < 200 nM.

Consider `CC(C)c1ccc(Nc2ncc(COc3ccc4[nH]c(=O)ccc4c3)cn2)cc1` [Example 44], for which, where the note is “read-out: Rating (hNR2B IC50)”, the half-inhibitory concentration (IC50) is < 200 nM.

For the compound `COc1ccc(Nc2ncc(COc3ccc4[nH]c(=O)ccc4c3)cn2)cc1C` [Example 46], for the setting “read-out: Rating (hNR2B IC50)”, the IC50 is < 200 nM.

With `CC(C)(C)c1ccc(Nc2ncc(COc3ccc4[nH]c(=O)ccc4c3)cn2)cc1` [Example 47], under “read-out: Rating (hNR2B IC50)”, the IC50 was < 200 nM.

With `COc1ccc(Nc2ncc(COc3ccc4[nH]c(=O)ccc4c3)cn2)cn1` [Example 48], the half-inhibitory concentration (IC50) (read-out: Rating (hNR2B IC50)) was < 200 nM.

For `COc1ncc(Nc2ncc(COc3ccc4[nH]c(=O)ccc4c3)cn2)cc1C` [Example 49], the IC50 (read-out: Rating (hNR2B IC50)) is < 200 nM.

For `O=c1ccc2cc(OCc3cnc(Nc4ccc(OC(F)F)nc4)nc3)ccc2[nH]1` [Example 50], for the setting “read-out: Rating (hNR2B IC50)”, the IC50 is < 200 nM.

For the origin of these results see US8841301B2, “Selective NR2B antagonists” (Bristol-Myers Squibb Company, priority 2011, dated 2014).
